{
  "source": "paper PMC5676250",
  "about": "“Cholesterol-directed nanoparticle assemblies based on single amino acid peptide mutations activate cellular uptake and decrease tumor volume” (Chemical Science, 2017)",
  "key": {"[1]": {"test_system": "SKOV-3 cells", "experiment": "MTT assay of endocytosis inhibitors, 40 min", "assay_type": "cell-based", "description": "The cytotoxicity was tested using an MTT assay. […] A combined solution of 5 mg mL^-1 MTT/PBS (10 μL per well) was added to each well of the 96-well plate assay, and the cells were incubated for an additional 4 hours. Formazan extraction was performed with DMSO and quantified colorimetrically using a Synergy H4 Hybrid Microplate reader (Biotek, USA), which was used to measure the OD 490 nm (absorbance value). The following formula was used to calculate the viability of cell growth: viability (%) = (mean of absorbance value of treatment group-blank/mean absorbance value of control-blank) × 100 (MTT was purchased from Sigma-Aldrich)."}, "[2]": {"test_system": "SKOV-3 ovarian cancer cells", "settings": "24 h", "description": "SKOV-3 cells were seeded in a 35 mm petri dish with a glass cover slide and allowed […]"}, "[3]": {"experiment": "in vitro", "settings": "mouse, serum, pH 8.2", "description": "A 1.5 mL mixture consisting of 30 μL mouse serum, 750 μL of peptides (1 mg mL^–1) and 1470 μL of digestion buffer (pH 8.2, 50 mM Tris, 20 mM CaCl2) was incubated at 37 °C for 16 h. Peptides treated with digestion buffer served as controls. Aliquots of 400 μL were withdrawn from the mixture and quenched with 400 μL of 1% trifluoroacetic acid (TFA) solution at 1 h, 8 h and 16 h. The quenched solution was analysed by reverse-phase high performance liquid chromatography (RP-HPLC). […]\nto adhere overnight at 37 °C under 5% CO2. The cell culture medium was then removed and replaced with fresh McCoy’s 5A medium containing HAL-2 (10 μM) or HAL-C (10 μM) for 1 h. After the medium was removed and the cells were washed with PBS (1 mL × 3 times), 1 mL of PBS containing 4 μL staining solution was added for 1 h.\nThe cells were then washed with PBS (1 mL × 3 times) before imaging. Cell fluorescence images were obtained with a confocal laser scanning microscope. […] for Tubulin-Trakcer Red: excitation: 561 nm, emission collected: 570 -620 nm; Blue channel for DAPI: excitation: 405 nm, emission collected: 425 -475 nm. (Tubulin-Trakcer Red were purchased from Beyotime Biotechnology) […]\nSKOV-3 cells were seeded in a 35 mm petri dish with a glass cover slide and allowed to adhere overnight at 37 °C under 5% CO2. […] Cell fluorescence images were obtained with a confocal laser scanning microscope. […]\nA 1.5 mL mixture consisting of 30 μL serum, 750 μL of peptides (1 mg/mL) , and 1470 μL of digestion buffer (pH 8.2, 50 mM Tris, 20 mM CaCl 2 ) was incubated at 37 °C for 16 h. […] The quenched solution was analyzed by reverse -phase […]\nIn vivo antitumor studies: When the tumors reached a mean volume of 50 mm 3 after inoculation of SKOV-3 cells, the mice were randomly separated into three groups (N=3/group): (1) negative control (PBS); (2) HAL-2; (3) HAL-C. […] During therapy, the tumor volumes and body weights were measured every two days. Length and width of tumors were measured individually using a Vernier caliper. Tumor volumes were calculated using the following formula: tumor volume = length × width 2 × 0.5. […]"}, "[4]": {"settings": "MTT, 40 min incubation, tested inhibitor concentrations (Fig. S17)"}},
  "note": "Where two headings read alike, the source gives them in different places. Residues, ends and D or L forms follow the SMILES beside them. No end group written: not given here. *: point of attachment. X1 = CC(C)CCC[C@@H](C)[C@H]1CC[C@H]2[C@@H]3CC=C4C[C@@H](OCC(=O)*)CC[C@]4(C)[C@H]3CC[C@]12C",
  "data": [
    {"compound": "N=C(N)NC(=O)c1nc(Cl)c(N)nc1N", "note": "[AM, amiloride]", "values": [
      {"measurement": "decrease of SKOV-3 cell viability", "setting": "[1]; [4]", "value": 20, "unit": "%"}
    ]},
    {"compound": "CN(C)CCCN1c2ccccc2Sc2ccc(Cl)cc21", "note": "[CPZ, chlorpromazine]", "values": [
      {"measurement": "decrease of SKOV-3 cell viability", "setting": "[1]; [4]", "value": 38, "unit": "%"}
    ]},
    {"compound": "CC[C@H](C)[C@H](NC(=O)[C@H](Cc1c[nH]cn1)NC(=O)[C@H](CCCCNC(=O)CO[C@H]1CC[C@@]2(C)C(=CC[C@H]3[C@@H]4CC[C@H]([C@H](C)CCCC(C)C)[C@@]4(C)CC[C@@H]32)C1)NC(=O)[C@H](CC(C)C)NC(=O)[C@H](CC(C)C)NC(=O)[C@H](CO)NC(=O)[C@H](CCSC)NC(=O)[C@H](Cc1c[nH]c2ccccc12)NC(=O)[C@H](CCCCN)NC(=O)CN)C(=O)N[C@@H](CC(C)C)C(=O)N[C@@H](CCCCN)C(N)=O", "note": "[HAL-B] (H-GKWMSLLK(X1)HILK-NH2)", "values": [
      {"measurement": "IC50", "setting": "[2]", "value": "24.6 ± 0.1", "unit": "µM"}
    ]},
    {"compound": "CC[C@H](C)[C@H](NC(=O)[C@H](Cc1c[nH]cn1)NC(=O)[C@H](CCCCN)NC(=O)[C@H](CC(C)C)NC(=O)[C@H](CCCCNC(=O)CO[C@H]1CC[C@@]2(C)C(=CC[C@H]3[C@@H]4CC[C@H]([C@H](C)CCCC(C)C)[C@@]4(C)CC[C@@H]32)C1)NC(=O)[C@H](CO)NC(=O)[C@H](CCSC)NC(=O)[C@H](Cc1c[nH]c2ccccc12)NC(=O)[C@H](CCCCN)NC(=O)CN)C(=O)N[C@@H](CC(C)C)C(=O)N[C@@H](CCCCN)C(N)=O", "note": "[HAL-C] (H-GKWMSK(X1)LKHILK-NH2)", "values": [
      {"measurement": "IC50", "setting": "[2]", "value": "12.7 ± 0.1", "unit": "µM"}
    ]},
    {"compound": "CSCC[C@H](NC(=O)[C@H](Cc1c[nH]c2ccccc12)NC(=O)[C@H](CCCCN)NC(=O)CN)C(=O)N[C@@H](CO)C(=O)N[C@@H](CC(C)C)C(=O)N[C@@H](CC(C)C)C(=O)N[C@@H](CCCCN)C(=O)N[C@@H](Cc1c[nH]cn1)C(=O)N[C@@H](CCCCNC(=O)CO[C@H]1CC[C@@]2(C)C(=CC[C@H]3[C@@H]4CC[C@H]([C@H](C)CCCC(C)C)[C@@]4(C)CC[C@@H]32)C1)C(=O)N[C@@H](CC(C)C)C(=O)N[C@@H](CCCCN)C(N)=O", "note": "[HAL-D] (H-GKWMSLLKHK(X1)LK-NH2)", "values": [
      {"measurement": "IC50", "setting": "[2]", "value": "16.2 ± 0.1", "unit": "µM"}
    ]},
    {"compound": "GKWMSLLKHILK-NH2 [HAL-2]", "values": [
      {"measurement": "remaining at 1 h", "setting": "[3]", "value": 55.4, "unit": "%"},
      {"measurement": "remaining at 8 h", "setting": "[3]", "value": 29.4, "unit": "%"},
      {"measurement": "remaining at 16 h", "setting": "[3]", "value": 11.2, "unit": "%"},
      {"measurement": "IC50", "setting": "[2]", "value": "54.1 ± 0.5", "unit": "µM"}
    ]},
    {"compound": "methyl-beta cyclodextrin [MBCD]", "values": [
      {"measurement": "decrease of SKOV-3 cell viability", "setting": "[1]", "value": "no significant effects"}
    ]}
  ]
}
